In US20200138031A1, “MIXTURES OF SABADILLA ALKALOIDS AND N-OCTYL BICYCLOHEPTENE DICARBOXIMIDE AND USES THEREOF” (priority 2016, published 2020):

Assays:
Type in all cases: in vivo
[1] = test system: house fly (Musca domestica); assay: direct spray bioassay against house fly; details: for % Mortality: Hour 4; for mortality at 0.025 % strength / mortality at 0.1 % strength / mortality at 0.25 % strength / mortality at 1 % strength: Musca domestica
Method: (§1) To determine if the mixtures provided unexpected results, the observed combined efficacy (“OCE”) was divided by the expected combined efficacy (“ECE”) to give an OCE/ECE ratio wherein the expected ECE is calculated by the Abbott method: […]
(§2) wherein ECE is the expected combined efficacy and in which A and B are the efficacy provided by the single active ingredients. If the ratio between the OCE of the mixture and the ECE of the mixture is greater than 1, then greater than expected interactions are present in the mixture. (Gisi, The American Phytopathological Society, 86:11, 1273-1279, 1996).
(§3) A direct spray bioassay for a mixture of sabadilla N-octyl and MGK264 against house fly (Musca domestica) was conducted on Mar. 6-13, 2019. A water-based formulation containing Sabadilla alone, MGK264 alone, or these combinations were prepared using test products and distilled water. Ten adults (females) of the house fly were put into 650 mL clean cup (100 mm diameter×70 mm height) laid a filter paper (106 mm diameter) at the bottom, and the cup was covered with 1 mm mesh nylon net. The cup was set on the bottom of CSMA chamber (460 mm×460 mm×700 mm height), and 0.5 mL of water (control) or water-based formulation of test products was sprayed from the distance of 30 cm toward the cup at the air pressure of 0.039 MPa (0.4 kg/cm2). […] The test was repeated 4 times and calculated mortality (%) at each observation point.

[2] = test system: Yellow fever mosquito (Aedes aegypti); assay: whole plant or invertebrate; details: for % Mortality: Hour 4; for mortality at 0.05 % strength / mortality at 0.5 % strength / mortality at 1 % strength / mortality: Aedes aegypti; for mortality at 1 % strength: 1.0 % w/w
Method: as §3, with “sabadilla and” for “sabadilla”, “bycloheptene dicarboximide (MGK264)” for “and MGK264”, “Yellow fever mosquito (Aedes aegypti)” for “house fly (Musca domestica)”, “Sep. 20-27,” for “Mar. 6-13,”, “mosquito” for “house fly”
as §1, §2

[3] = test system: bed bug (Cimex lectularius); assay: direct spray bioassay against bed bug; details: for % Mortality: Hour 4; for mortality at 0.05 % strength / mortality at 0.5 % strength / mortality at 5 % strength: Cimex lectularius
Method: as §1, §2
A direct spray bioassay for a mixture of sabadilla and MGK264 bed bug (Cimex lectularius) was conducted on February 27 to Mar. 6, 2019. A water-based formulation containing Sabadilla alone, MGK264 alone, or these combinations were prepared using test products and distilled water. Ten adults (1:1 sex ratio) of the bed bug (Cimex lectularius) were put into 200 mL clean cup (80 mm diameter×45 mm height) laid a filter paper (82 mm diameter) at the bottom. The cup was set on the bottom of CSMA chamber (460 mm×460 mm×700 mm height), and 0.5 mL of water (control) or water-based formulation of test products was sprayed from the distance of 60 cm toward the cup at the air pressure of 0.041 MPa (0.42 kg/cm2). […] The test was repeated 4 times and calculated mortality (%) at each observation point.

CCCCC(CC)CN1C(=O)C2C3C=CC(C3)C2C1=O (centres unmarked) [MGK264, N-octyl bicycloheptene dicarboximide]
% Mortality ([1]; 0.025 % w/w): 0.0% | % Mortality ([1]; 0.1 % w/w): 0.0% | % Mortality ([1]; 0.25 % w/w): 0.0% | % Mortality ([1]; 1.0 % w/w): 0.0% | mortality at 0.025 % strength ([1]; 24 h, 0.025 % w/w, Day 1): 0% | mortality at 0.1 % strength ([1]; 24 h, 0.1 % w/w, Day 1): 0% | mortality at 0.25 % strength ([1]; 24 h, 0.25 % w/w, Day 1): 0% | mortality at 1 % strength ([1]; 24 h, 1.0 % w/w, Day 1): 2.5% | mortality at 0.025 % strength ([1]; 48 h, 0.025 % w/w, Day 2): 7.3% | mortality at 0.1 % strength ([1]; 48 h, 0.1 % w/w, Day 2): 10% | mortality at 0.25 % strength ([1]; 48 h, 0.25 % w/w, Day 2): 10% | mortality at 1 % strength ([1]; 48 h, 1.0 % w/w, Day 2): 12.5% | mortality at 0.025 % strength ([1]; 120 h, 0.025 % w/w, Day 5): 34.1% | mortality at 0.1 % strength ([1]; 120 h, 0.1 % w/w, Day 5): 37.5% | mortality at 0.25 % strength ([1]; 120 h, 0.25 % w/w, Day 5): 42.5% | mortality at 1 % strength ([1]; 120 h, 1.0 % w/w, Day 5): 72.5% | mortality at 0.025 % strength ([1]; 144 h, 0.025 % w/w, Day 6): 53.7% | mortality at 0.1 % strength ([1]; 144 h, 0.1 % w/w, Day 6): 37.5% | mortality at 0.25 % strength ([1]; 144 h, 0.25 % w/w, Day 6): 50% | mortality at 1 % strength ([1]; 144 h, 1.0 % w/w, Day 6): 80% | mortality at 0.025 % strength ([1]; 168 h, 0.025 % w/w, Day 7): 68.3% | mortality at 0.1 % strength ([1]; 168 h, 0.1 % w/w, Day 7): 55% | mortality at 0.25 % strength ([1]; 168 h, 0.25 % w/w, Day 7): 60% | mortality at 1 % strength ([1]; 168 h, 1.0 % w/w, Day 7): 87.5% | mortality at 0.025 % strength ([1]; 0.025 % w/w, Hour 1): 0% | mortality at 0.1 % strength ([1]; 0.1 % w/w, Hour 1): 0% | mortality at 0.25 % strength ([1]; 0.25 % w/w, Hour 1): 0% | mortality at 1 % strength ([1]; 1.0 % w/w, Hour 1): 0% | % Mortality ([2]; 0.05 % w/w): 0.0% | % Mortality ([2]; 0.1 % w/w): 0.0% | % Mortality ([2]; 0.5 % w/w): 0.0% | mortality at 0.05 % strength ([2]; 24 h, 0.05 % w/w, Day 1): 0% | mortality at 0.5 % strength ([2]; 24 h, 0.5 % w/w, Day 1): 0% | mortality at 1 % strength ([2]; 24 h, Day 1): 10% | mortality ([2]; 24 h, Day 1): 0% | mortality at 0.5 % strength ([2]; 48 h, 0.5 % w/w, Day 2): 0% | mortality at 1 % strength ([2]; 48 h, Day 2): 12.5% | mortality at 0.05 % strength ([2]; 120 h, 0.05 % w/w, Day 5): 0% | mortality at 0.5 % strength ([2]; 120 h, 0.5 % w/w, Day 5): 0% | mortality at 1 % strength ([2]; 120 h, Day 5): 12.5% | mortality at 0.5 % strength ([2]; 144 h, 0.5 % w/w, Day 6): 0% | mortality at 1 % strength ([2]; 144 h, Day 6): 12.5% | mortality at 0.05 % strength ([2]; 168 h, 0.05 % w/w, Day 7): 0% | mortality at 0.5 % strength ([2]; 168 h, 0.5 % w/w, Day 7): 0% | mortality at 1 % strength ([2]; 168 h, Day 7): 12.5% | mortality ([2]; 168 h, Day 7): 2.5% | mortality at 0.05 % strength ([2]; 0.05 % w/w, Hour 1): 0% | mortality at 0.5 % strength ([2]; 0.5 % w/w, Hour 1): 0% | mortality at 1 % strength ([2]; Hour 1): 7.5% | mortality ([2]; Hour 1): 0% | % Mortality ([3]; 0.05 % w/w): 0.0% | % Mortality ([3]; 0.5 % w/w): 0.0% | % Mortality ([3]; 5.0 % w/w): 0.0% | mortality at 0.05 % strength ([3]; 24 h, 0.05 % w/w, Day 1): 0% | mortality at 0.5 % strength ([3]; 24 h, 0.5 % w/w, Day 1): 0% | mortality at 5 % strength ([3]; 24 h, 5.0 % w/w, Day 1): 0% | mortality at 0.05 % strength ([3]; 48 h, 0.05 % w/w, Day 2): 0% | mortality at 0.5 % strength ([3]; 48 h, 0.5 % w/w, Day 2): 0% | mortality at 5 % strength ([3]; 48 h, 5.0 % w/w, Day 2): 0% | mortality at 0.05 % strength ([3]; 120 h, 0.05 % w/w, Day 5): 0% | mortality at 0.5 % strength ([3]; 120 h, 0.5 % w/w, Day 5): 0% | mortality at 5 % strength ([3]; 120 h, 5.0 % w/w, Day 5): 0% | mortality at 0.05 % strength ([3]; 144 h, 0.05 % w/w, Day 6): 0% | mortality at 0.5 % strength ([3]; 144 h, 0.5 % w/w, Day 6): 0% | mortality at 5 % strength ([3]; 144 h, 5.0 % w/w, Day 6): 0% | mortality at 0.05 % strength ([3]; 168 h, 0.05 % w/w, Day 7): 0% | mortality at 0.5 % strength ([3]; 168 h, 0.5 % w/w, Day 7): 0% | mortality at 5 % strength ([3]; 168 h, 5.0 % w/w, Day 7): 0% | mortality at 0.05 % strength ([3]; 0.05 % w/w, Hour 1): 0% | mortality at 0.5 % strength ([3]; 0.5 % w/w, Hour 1): 0% | mortality at 5 % strength ([3]; 5.0 % w/w, Hour 1): 0%
